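96-well plates; 48 h exposure; 5 concentrations. Endpoints by linear interpolation between flanking doses. Not reached: highest tested concentration assigned. Abbreviation: GI50, concentration required for 50% inhibition of growth.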 Calls of active or inactive are those of the source. Cut-off read from the data, not from the text of the source: active = GI50 up to about 1.1 µM and inactive = higher.
What was measured:
Assay in all cases: NCI-60 cell line screen, 48 h
[1] = test system: 786-0
[2] = test system: HL-60
[3] = test system: HOP-62
[4] = test system: KM12
[5] = test system: LOX IMVI
[6] = test system: MOLT-4
[7] = test system: NCI-H23
[8] = test system: NCI-H460
[9] = test system: OVCAR-4
[10] = test system: SF-295
[11] = test system: SK-MEL-28
[12] = test system: SK-MEL-2
[13] = test system: SN12C
[14] = test system: SW-620
[15] = test system: U-251
[16] = test system: UACC-62
[17] = test system: UO-31
[18] = test system: Malme-3M
[19] = test system: NCI-H226

Measured: GI50

COC(=O)C1CCC(=O)N1/C(C)=N/NC(=O)Nc1ccc(Cl)c(Cl)c1 (configuration not stated)
inactive: [1] > 100 µM | [2] > 100 µM | [3] > 100 µM | [4] 98.4 µM | [5] 31.5 µM | [6] 99.1 µM | [7] > 100 µM | [8] > 100 µM | [9] > 100 µM | [10] > 100 µM | [11] > 100 µM | [12] > 100 µM | [13] > 100 µM | [14] > 100 µM | [15] > 100 µM | [16] 10.5 µM | [17] > 100 µM

N#C/C(=C\c1cccc(O)c1O)C(N)=O
inactive: [1] 33.3 µM | [2] 15.5 µM | [3] 68.9 µM | [4] 36.3 µM | [6] 35.9 µM | [18] 46.8 µM | [19] 25.3 µM | [7] 34.8 µM | [8] 29.4 µM | [9] 62.4 µM | [10] 58.1 µM | [11] 30.8 µM | [12] 38.4 µM | [13] 45.6 µM | [14] 50.2 µM | [15] 61.4 µM | [16] 35.2 µM | [17] 22.7 µM

CCCCOP1(=O)C=CC(Cl)=C(C)C1 (configuration not stated)
inactive: [1] 22.3 µM | [2] 16.1 µM | [3] 71.3 µM | [4] 21.5 µM | [6] 3.83 µM | [18] 19.5 µM | [19] 21.4 µM | [7] > 10 µM | [8] 29.8 µM | [9] 25.2 µM | [10] 18.2 µM | [11] 16.3 µM | [12] 12.4 µM | [13] 20 µM | [14] 20.4 µM | [15] > 10 µM | [16] 22.3 µM | [17] 41.8 µM

COC(=O)C1=COC2OC3/C(=C\c4ccc(O)c(OC)c4)C(=O)OC34C=CC1C24 (configuration not stated)
inactive: [2] 9.18 µM | [3] 24.5 µM | [4] 13.8 µM | [6] 31.2 µM | [18] 16.5 µM | [19] 14.4 µM | [7] 17.7 µM | [8] 17.9 µM | [9] 17.6 µM | [10] 17.2 µM | [11] 18.6 µM | [12] 11.3 µM | [13] 17.8 µM | [14] 20 µM | [15] 15.2 µM | [16] 19.6 µM | [17] 14.4 µM

COP(=O)(OC)C(Cc1cn(C(C)=O)c2ccccc12)C(=O)O (configuration not stated)
inactive: [2] > 100 µM | [3] > 100 µM | [5] > 100 µM | [6] > 100 µM | [19] > 100 µM | [7] > 100 µM | [8] > 100 µM | [9] > 100 µM | [10] > 100 µM | [11] > 100 µM | [12] > 100 µM | [13] > 100 µM | [14] > 100 µM | [15] > 100 µM | [17] > 100 µM

C/C([O-])=C(/c1nc(-c2ccc([N+](=O)[O-])o2)no1)[n+]1cc(C)ccc1C
inactive: [3] 22.7 µM | [4] 5.82 µM | [5] 5.94 µM | [6] > 100 µM | [18] 14.3 µM | [19] 15.7 µM | [7] 12.1 µM | [8] 4.62 µM | [9] 25.1 µM | [10] 11.7 µM | [11] 12.7 µM | [12] 7.94 µM | [13] 13.6 µM | [14] 5.31 µM | [15] 8.11 µM | [16] 7.21 µM | [17] 21.7 µM

Reference: ChEMBL document CHEMBL1201862, “PubChem BioAssay data set” (2004)
